Data published in PubChem BioAssay AID1195 (EPA DSSTox, 2008).

Test system: human maximum recommended daily dose, FDA database
Assay: DSSTox (FDAMDD) FDA Maximum (Recommended) Daily Dose Database
Conditions: hits give low values
In short: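 MRDD values come from clinical trials with daily oral dosing, usually for 3–12 months, for the average adult, in mg/day converted to mg/kg-bw/day assuming 60 kg. Antineoplastic mg/m2 doses are divided by 37. Activity score maps log10(1/MRDD mmol) onto 1–100.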

[1] = TherapeuticCategory: skeletal muscle relaxant
[2] = TherapeuticCategory: sedative, hypnotic
[3] = TherapeuticCategory: antibacterial
[4] = TherapeuticCategory: anticonvulsant

NC(N)=NC(N)=NCCc1ccccc1
maximum recommended daily dose (mmol/kg-bw/day) (TherapeuticCategory: antidiabetic): 0.00814

Cc1ccc(C(=O)C(C)CN2CCCCC2)cc1 (stereo unspecified)
maximum recommended daily dose (mmol/kg-bw/day) [1]: 0.0204

C=CCC1(C(C)CCC)C(=O)N=C(O)NC1=O (stereo unspecified)
maximum recommended daily dose (mmol/kg-bw/day) [2]: 0.0128

OC[C@H]1OC(O)[C@H](O)[C@@H](O)[C@H]1O (stereo partly specified)
maximum recommended daily dose (mmol/kg-bw/day) (TherapeuticCategory: diagnostic aid, hepatic function): 0.555

COc1ncnc(NS(=O)(=O)c2ccc(N)cc2)c1OC
maximum recommended daily dose (mmol/kg-bw/day) [3]: 0.0806

CC(C(=O)O)c1ccc(C(=O)c2ccccc2)s1 (stereo unspecified)
maximum recommended daily dose (mmol/kg-bw/day) (TherapeuticCategory: anti inflammatory): 0.0384

CC[C@@H](C(N)=O)N1CCCC1=O
maximum recommended daily dose (mmol/kg-bw/day) [4]: 0.353

Nc1ccc(C(=O)NCC(=O)O)cc1
maximum recommended daily dose (mmol/kg-bw/day) (TherapeuticCategory: anti inflammatory, antifungal): 0.0515

CCC(c1ccc2cc(OC)ccc2c1)C(C)(C)C(=O)O (stereo unspecified)
maximum recommended daily dose (mmol/kg-bw/day) (TherapeuticCategory: estrogen): 0.000524

CC(C)[C@H](N)C(=O)OCCOCn1cnc2c(=O)[nH]c(N)nc21
maximum recommended daily dose (mmol/kg-bw/day) (TherapeuticCategory: antiviral): 0.154

C=CCN1C(=O)C(CC(C)C)NC1=S (stereo unspecified)
maximum recommended daily dose (mmol/kg-bw/day) [4]: 0.188

CC(=O)OC1C([N+]2(C)CCCCC2)C[C@H]2[C@@H]3CC[C@H]4C[C@H](OC(C)=O)C(N5CCCCC5)C[C@]4(C)[C@H]3CC[C@]12C (stereo partly specified)
maximum recommended daily dose (mmol/kg-bw/day) [1]: 0.000157

COC(=O)[C@H]1[C@H]2C[C@@H]3c4[nH]c5cc(OC)ccc5c4CCN3C[C@H]2C[C@@H](OC(=O)/C=C/c2cc(OC)c(OC)c(OC)c2)[C@@H]1OC
maximum recommended daily dose (mmol/kg-bw/day) (TherapeuticCategory: antihypertensive): 2.63e-05

CNC[C@H](O)[C@@H](O)[C@H](O)[C@H](O)CO
maximum recommended daily dose (mmol/kg-bw/day) (TherapeuticCategory: diagnostic aid): 0.512

CN[C@H]1[C@@H](O)[C@H](O[C@H]2O[C@H]([C@H](C)N)CC[C@H]2N)[C@@H](N)[C@H](O)[C@@H]1OC
maximum recommended daily dose (mmol/kg-bw/day) [3]: 0.0191

c1ccc(CC2=NCCN2)cc1
maximum recommended daily dose (mmol/kg-bw/day) (TherapeuticCategory: antiadrenergic): 0.0125

Cc1c(OCC(F)(F)F)ccnc1CS(=O)c1nc2ccccc2[nH]1 (stereo unspecified)
maximum recommended daily dose (mmol/kg-bw/day) (TherapeuticCategory: antiulcerative, anti infective): 0.00135

CN(C)CC/C=C1/c2ccccc2COc2ccccc21
maximum recommended daily dose (mmol/kg-bw/day) (TherapeuticCategory: antidepressant): 0.0179

Cc1oncc1C(=O)Nc1ccc(C(F)(F)F)cc1
maximum recommended daily dose (mmol/kg-bw/day) (TherapeuticCategory: antirheuematic, immunosuppressant): 0.00123

COc1ccc2c3c1O[C@H]1C(=O)CC[C@H]4[C@@H](C2)N(C)CC[C@]314
maximum recommended daily dose (mmol/kg-bw/day) (TherapeuticCategory: analgesic): 0.00251

COc1cc(NCc2ccc3nc(N)nc(N)c3c2C)cc(OC)c1OC
maximum recommended daily dose (mmol/kg-bw/day) (TherapeuticCategory: antineoplastic): 0.0033

N[C@@H](C(=O)N[C@@H]1C(=O)N2C(C(=O)O)=C(Cl)CC[C@H]12)c1ccccc1
maximum recommended daily dose (mmol/kg-bw/day) [3]: 0.0181

NS(=O)(=O)c1cc2c(cc1C(F)(F)F)NC(Cc1ccccc1)NS2(=O)=O (stereo unspecified)
maximum recommended daily dose (mmol/kg-bw/day) (TherapeuticCategory: diuretic, antihypertensive): 0.00079

O=P(O)(O)OC(CO)CO
maximum recommended daily dose (mmol/kg-bw/day) (TherapeuticCategory: none): 0.388

Nc1cc(-c2ccncc2)c[nH]c1=O
maximum recommended daily dose (mmol/kg-bw/day) (TherapeuticCategory: cardiotonic): 0.00401

O=C(CCCN1CCC(O)(c2ccc(Br)cc2)CC1)c1ccc(F)cc1
maximum recommended daily dose (mmol/kg-bw/day) (TherapeuticCategory: antipsychotic): 0.00198

NC(Cc1cc(I)c(Oc2cc(I)c(O)c(I)c2)c(I)c1)C(=O)O (stereo unspecified)
maximum recommended daily dose (mmol/kg-bw/day) (TherapeuticCategory: thyroid hormone, antihyperlipoproteinemic): 6.44e-06

Nc1nc2c(c(=O)[nH]1)N(C=O)C(CNc1ccc(C(=O)NC(CCC(=O)O)C(=O)O)cc1)CN2 (stereo unspecified)
maximum recommended daily dose (mmol/kg-bw/day) (TherapeuticCategory: antidote to folic acid antagonists, antianemic): 0.0114

C[N+](C)(C)CCOC(N)=O
maximum recommended daily dose (mmol/kg-bw/day) (TherapeuticCategory: cholinergic, miotic): 0.000365

OC[C@H]1O[C@@H](O[C@H]2[C@H](O)[C@@H](O)[C@H](O)O[C@@H]2CO)[C@H](O)[C@@H](O)[C@H]1O
maximum recommended daily dose (mmol/kg-bw/day) (TherapeuticCategory: none): 0.292

CC(=O)Nc1ccc(OC(=O)c2ccccc2OC(C)=O)cc1
maximum recommended daily dose (mmol/kg-bw/day) (TherapeuticCategory: analgesic, antipyretic, anti inflammatory): 0.425

COc1c2occc2cc2ccc(=O)oc12
maximum recommended daily dose (mmol/kg-bw/day) (TherapeuticCategory: pigmentation agent): 0.00278

COc1ccc2c3c1O[C@H]1[C@@H](O)C=C[C@H]4[C@@H](C2)N(C)CC[C@@]341
maximum recommended daily dose (mmol/kg-bw/day) (TherapeuticCategory: narcotic analgesic, antitussive): 0.02

CCC(C)C1(CC)C(=O)NC(=O)NC1=O (stereo unspecified)
maximum recommended daily dose (mmol/kg-bw/day) [2]: 0.00942

C[C@]1(Cn2ccnn2)[C@H](C(=O)O)N2C(=O)C[C@H]2S1(=O)=O
maximum recommended daily dose (mmol/kg-bw/day) [3]: 0.0833

CC(C1=C(CCN(C)C)Cc2ccccc21)c1ccccn1 (stereo unspecified)
maximum recommended daily dose (mmol/kg-bw/day) (TherapeuticCategory: antihistaminic): 0.000342
